Source: US10441627B2, “Method of treating prader-willi syndrome” (Ferring B.V., priority 2014, dated 2019)

How the values were obtained:
[1] = tested on: subjects with Prader-Willi Syndrome (PWS); assay: Double-blind, placebo-controlled clinical trial of carbetocin intranasal spray in subjects with PWS; assay type: in vivo, human; conditions: for Clinical Global Impression, Least-Squares Mean Change Carbetocin vs. Placebo: CGI-I 7-point clinician rating; for HPWSQ-R-C Behavior domain score, Least-Squares Mean Change Carbetocin vs. Placebo / HPWSQ-R-C Drive domain score, Least-Squares Mean Change Carbetocin vs. Placebo / HPWSQ-R-C Severity domain score, Least-Squares Mean Change Carbetocin vs. Placebo / HPWSQ-R-C total score, Least-Squares Mean Change Carbetocin vs. Placebo: clinician rated; for HPWSQ-R total score, Least-Squares Mean Change Carbetocin vs. Placebo / HPWSQ-R Behavior domain score, Least-Squares Mean Change Carbetocin vs. Placebo / HPWSQ-R Drive domain score, Least-Squares Mean Change Carbetocin vs. Placebo / HPWSQ-R Severity domain score, Least-Squares Mean Change Carbetocin vs. Placebo: parent/caregiver rated; for HPWSQ-R total score, Least-Squares Mean Change Carbetocin vs. Placebo: negative = improvement vs placebo
Experimental: A prospective, double-blind, placebo-controlled, parallel trial in subjects with PWS between 10 and 18 years of age with genetically confirmed diagnosis of PWS and a documented nutritional Phase 3 based on the criteria described in Miller et al, 2011 (Am J Med Genet A, 155A(5):1040-1049) was performed. The trial included a Screening Period, a 14-day Treatment Period, and a Follow-Up Period. Subjects, along with their parent/caregiver, were required to visit the investigational site 4 times over the course of the trial and participate in 2 phone call assessments. The trial schedule is listed below. • Visit 1: Screening Period (Day −7 to Day 0) • Visit 2: Baseline 1st day dosing on site (Day 1) • Visit 3: 2nd day dosing on site (Day 2) • Phone call assessment (Day 8±1) • Visit 4: End-of-Treatment Visit (Day 15) • Follow-up phone call (Day 19±3)
Following appropriate informed consent procedures, subjects underwent screening evaluations to determine eligibility before randomization. After randomization, efficacy measures and other assessments, including physical examination, vital signs, and collection of blood samples for clinical laboratory and pharmacokinetic evaluation, were performed at selected visits. Subjects were closely monitored for adverse events throughout the trial.
Prior to first dosing at the investigational site, parents/caregivers were trained on the proper use of the nasal spray device and procedures for investigational medicinal product (IMP) home delivery. Parents/caregivers were instructed to administer 3 intranasal spray pumps of blinded IMP per nostril 3 times daily before meals within the following intervals:
38 subjects, 10-18 years of age, with genetically confirmed diagnosis of PWS and documented nutritional phase 3 PWS criteria (based on Miller et al, 2011), were randomized. 36 subjects completed the study.
The carbetocin intranasal spray was prepared by dissolving […] in 0.9% sterile sodium chloride solution. Specifically, the preweighed carbetocin powder was reconstituted with the sodium chloride solution and subsequently transferred to a nasal spray device. Each spray pump actuation delivered a 50 μL volume of solution containing 1.6 mg carbetocin. Each dose consisted of 3 spray pump actuations in each nostril to deliver a total of 9.6 mg carbetocin. The daily dose of carbetocin was 28.8 mg.
The primary endpoint measured in this trial was change in the total score from Visit 2 to Visit 4 in Hyperphagia in Prader-Willi Syndrome Questionnaire-Responsiveness (HPWSQ-R), which was completed by the parent/caregiver.
1. Clinical Global Impression-Improvement (CGI-I) after treatment at Visit 4.
2. Change from Visit 2 to Visit 4 for the following measurements: • HPWSQ-R hyperphagia behavior, drive, and severity domain scores. • Hyperphagia in Prader-Willi Syndrome Questionnaire-Responsiveness—completed by the clinician (HPWSQ-R-C) total score. • HPWSQ-R-C hyperphagia behavior, drive, and severity domain scores.
3. Change from Visit 1 to Visit 4 for the following measurements: • Children's Yale-Brown Obsessive Compulsive Scale (CY-BOCS) score. • Food Domain of the Reiss Profile.
The primary endpoint was analyzed using an analysis of covariance model with treatment and site as fixed effects and HPWSQ-R total score at Visit 2 (baseline) as a covariate. The last observation carried forward method was used to carry forward non-missing values of HPWSQ-R total score during the phone call assessment (Day 8±1) to impute missing values of HPWSQ-R total score at Visit 4. The treatment group difference in total score between placebo and carbetocin was calculated by subtracting the mean change from baseline in placebo from that in the carbetocin group. A borderline statistically significant difference at the 10% significant level was achieved if the upper limit of the 90% 1-sided confidence interval for the treatment difference was less than zero. […]

[2] = tested on: human oxytocin (hOT) receptor vs human V2 (hV2) receptor; conditions: ratio of EC50 values; from Table 2 in WO2009/122285; cited from earlier work

**Q.** For carbetocin, which “Clinical Global Impression, Least-Squares Mean Change Carbetocin vs. Placebo” value ([1]; Day 8, intranasal 28.8 mg/day) is on record?
**A.** The value was −0.9/0.0162.

**Q.** What about the “HPWSQ-R-C Behavior domain score, Least-Squares Mean Change Carbetocin vs. Placebo” value ([1]; Day 8, intranasal 28.8 mg/day) of the same compound?
**A.** Its value is −5.4/0.0017.

**Q.** What about the “HPWSQ-R-C Drive domain score, Least-Squares Mean Change Carbetocin vs. Placebo” value ([1]; Day 8, intranasal 28.8 mg/day) of the same compound?
**A.** The value was −3.4/0.0019.

**Q.** What about the “HPWSQ-R-C Severity domain score, Least-Squares Mean Change Carbetocin vs. Placebo” value ([1]; Day 8, intranasal 28.8 mg/day) of the same compound?
**A.** The value was −1.7/0.0061.

**Q.** And the “HPWSQ-R-C total score, Least-Squares Mean Change Carbetocin vs. Placebo” value ([1]; Day 8, intranasal 28.8 mg/day)?
**A.** The value was −10.2/0.0017.

**Q.** And the “CY-BOCS, Least-Squares Mean Change Carbetocin vs. Placebo” value ([1]; Day 8, intranasal 28.8 mg/day)?
**A.** The value was −2.7/0.0956.

**Q.** And the “Food Domain Score of Reiss Profile, Least-Squares Mean Change Carbetocin vs. Placebo” value ([1]; Day 8, intranasal 28.8 mg/day)?
**A.** The value was −3.0/0.0184.

**Q.** And the “HPWSQ-R total score, Least-Squares Mean Change Carbetocin vs. Placebo” value ([1]; Day 8, intranasal 9.6 mg three times daily (28.8 mg/day))?
**A.** The value was −5.2/0.0632.

**Q.** What about the “HPWSQ-R Behavior domain score, Least-Squares Mean Change Carbetocin vs. Placebo” value ([1]; Day 8, intranasal 28.8 mg/day) of the same compound?
**A.** Its value is −1.9/0.1153.

**Q.** And the “HPWSQ-R Drive domain score, Least-Squares Mean Change Carbetocin vs. Placebo” value ([1]; Day 8, intranasal 28.8 mg/day)?
**A.** Its value is −2.1/0.0625.

**Q.** And the “HPWSQ-R Severity domain score, Least-Squares Mean Change Carbetocin vs. Placebo” value ([1]; Day 8, intranasal 28.8 mg/day)?
**A.** Its value is −1.1/0.0572.

**Q.** What about the “Clinical Global Impression, Least-Squares Mean Change Carbetocin vs. Placebo” value ([1]; Day 15, intranasal 28.8 mg/day) of the same compound?
**A.** Its value is −0.8/0.0233.

**Q.** And the “HPWSQ-R-C Behavior domain score, Least-Squares Mean Change Carbetocin vs. Placebo” value ([1]; Day 15, intranasal 28.8 mg/day)?
**A.** Its value is −4.3/0.0068.

**Q.** What about the “HPWSQ-R-C Drive domain score, Least-Squares Mean Change Carbetocin vs. Placebo” value ([1]; Day 15, intranasal 28.8 mg/day) of the same compound?
**A.** The value was −2.6/0.0340.

**Q.** And the “HPWSQ-R-C Severity domain score, Least-Squares Mean Change Carbetocin vs. Placebo” value ([1]; Day 15, intranasal 28.8 mg/day)?
**A.** The value was −2.2/0.0014.

**Q.** And the “HPWSQ-R-C total score, Least-Squares Mean Change Carbetocin vs. Placebo” value ([1]; Day 15, intranasal 28.8 mg/day)?
**A.** The value was −10.5/0.0014.

**Q.** What about the “CY-BOCS, Least-Squares Mean Change Carbetocin vs. Placebo” value ([1]; Day 15, intranasal 28.8 mg/day) of the same compound?
**A.** Its value is −6.2/0.0047.

**Q.** And the “Food Domain Score of Reiss Profile, Least-Squares Mean Change Carbetocin vs. Placebo” value ([1]; Day 15, intranasal 28.8 mg/day)?
**A.** The value was −4.4/0.0132.

**Q.** What about the “HPWSQ-R Behavior domain score, Least-Squares Mean Change Carbetocin vs. Placebo” value ([1]; Day 15, intranasal 28.8 mg/day) of the same compound?
**A.** Its value is −2.0/0.1172.

**Q.** What about the “HPWSQ-R Drive domain score, Least-Squares Mean Change Carbetocin vs. Placebo” value ([1]; Day 15, intranasal 28.8 mg/day) of the same compound?
**A.** Its value is −1.6/0.1436.

**Q.** What about the “HPWSQ-R Severity domain score, Least-Squares Mean Change Carbetocin vs. Placebo” value ([1]; Day 15, intranasal 28.8 mg/day) of the same compound?
**A.** The value was −1.5/0.0248.

**Q.** What about the “HPWSQ-R total score, Least-Squares Mean Change Carbetocin vs. Placebo” value ([1]; Day 15, intranasal 28.8 mg/day) of the same compound?
**A.** The value was −6.7/0.0290.

**Q.** What about the “Improvement over placebo treated patients in HPWSQ-R, HPWSQ-R-C, CGI, CY-BOCS and Food Domain Score of Reiss Profile” value ([1]; Day 15 results, P<0.05) of the same compound?
**A.** Its value is “statistically significant improvement”.

**Q.** What about the “hV2/hOT selectivity ratio (EC50 hV2/EC50 hOT)” value [2] of the same compound?
**A.** Its value is 244.

**Q.** Which “hV2/hOT selectivity ratio (EC50 hV2/EC50 hOT)” value [2] does the source give for `CC[C@H](C)[C@@H]1NC(=O)[C@H](Cc2ccc(O)cc2)NC(=O)[C@@H](N)CSSC[C@@H](C(=O)N2CCC[C@H]2C(=O)N[C@@H](CC(C)C)C(=O)NCC(N)=O)NC(=O)[C@H](CC(N)=O)NC(=O)[C@H](CCC(N)=O)NC1=O` [Oxytocin] here?
**A.** Its value is 3.
